Test results reported in ChEMBL document CHEMBL1201862, “PubChem BioAssay data set” (2004).
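Grown in 96-well plates, cells were treated for 48 hours with each compound at five concentrations. Insufficient inhibition: endpoint recorded as highest concentration tested. At the GI50, growth is halved.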 Calls of active or inactive are those of the source. No stated cut-off is given here; in the data, active = GI50 up to about 1.1 µM and inactive = higher.

Key:
Assay in all cases: NCI anticancer screen, dose series, 48 h
[1] = test system: 786-0
[2] = test system: A498
[3] = test system: A549
[4] = test system: ACHN
[5] = test system: BT-549
[6] = test system: CAKI-1
[7] = test system: CCRF-CEM
[8] = test system: COLO 205
[9] = test system: DU-145
[10] = test system: EKVX
[11] = test system: HCC 2998
[12] = test system: HCT-116
[13] = test system: HCT-15
[14] = test system: HOP-62
[15] = test system: HOP-92
[16] = test system: HT-29
[17] = test system: Hs-578T
[18] = test system: IGROV-1
[19] = test system: K562
[20] = test system: KM12
[21] = test system: LOX IMVI
[22] = test system: M14
[23] = test system: MCF7
[24] = test system: MDA-MB-231
[25] = test system: MDA-MB-435
[26] = test system: MOLT-4
[27] = test system: Malme-3M
[28] = test system: NCI-H226
[29] = test system: NCI-H23
[30] = test system: NCI-H460
[31] = test system: NCI-H522
[32] = test system: NCI/ADR-RES
[33] = test system: OVCAR-3
[34] = test system: OVCAR-4
[35] = test system: OVCAR-5
[36] = test system: OVCAR-8
[37] = test system: PC-3
[38] = test system: RPMI-8226
[39] = test system: RXF 393
[40] = test system: SF-268
[41] = test system: SF-295
[42] = test system: SF-539
[43] = test system: SK-MEL-28
[44] = test system: SK-MEL-2
[45] = test system: SK-MEL-5
[46] = test system: SK-OV-3
[47] = test system: SN12C
[48] = test system: SNB-19
[49] = test system: SNB-75
[50] = test system: SW-620
[51] = test system: T47D
[52] = test system: TK-10
[53] = test system: U-251
[54] = test system: UACC-257
[55] = test system: UACC-62
[56] = test system: UO-31
[57] = test system: HL-60
[58] = test system: SR

For CCC1(c2ccc(N3C(=O)c4cccc5cc([N+](=O)[O-])cc(c45)C3=O)cc2)CCC(=O)NC1=O (centres undefined), the GI50 [1] was 7.38 µM (inactive), the GI50 [2] was 10.1 µM (inactive) and the GI50 [3] was 55.5 µM (inactive). For the same molecule, the GI50 [4] was 11.5 µM (inactive), the GI50 [5] was 13.5 µM (inactive) and the GI50 [6] was 14.2 µM (inactive). For the same molecule, the GI50 [7] was 7.74 µM (inactive), the GI50 [8] was 9.57 µM (inactive) and the GI50 [9] was > 44.9 µM (inactive). The GI50 [10] was 11.7 µM (inactive), the GI50 [11] was 30.7 µM (inactive) and the GI50 [12] was 5.42 µM (inactive). For the same molecule, the GI50 [13] was 31 µM, the GI50 [14] was 9.12 µM (inactive) and the GI50 [15] was 2.16 µM (inactive). The GI50 [16] was 20.5 µM (inactive), the GI50 [17] was 16.1 µM (inactive) and the GI50 [18] was 5.4 µM (inactive). For the same molecule, the GI50 [19] was 17.1 µM (inactive), the GI50 [20] was > 100 µM (inactive) and the GI50 [21] was 11.9 µM (inactive). For the same molecule, the GI50 [22] was 61.5 µM (inactive), the GI50 [23] was 29.9 µM (inactive) and the GI50 [24] was 5.16 µM (inactive). The GI50 [25] was 24.3 µM (inactive), the GI50 [26] was 11.9 µM (inactive) and the GI50 [27] was 20.1 µM (inactive). For the same molecule, the GI50 [28] was 10.9 µM (inactive), the GI50 [29] was 25.5 µM (inactive) and the GI50 [30] was 6.35 µM (inactive). For the same molecule, the GI50 [31] was 1.81 µM (inactive), the GI50 [32] was 17 µM (inactive) and the GI50 [33] was 20.7 µM (inactive). For the same molecule, the GI50 [34] was 12.6 µM (inactive), the GI50 [35] was 60.8 µM (inactive) and the GI50 [36] was 12 µM (inactive). For the same molecule, the GI50 [37] was 20.9 µM (inactive), the GI50 [38] was 11.6 µM (inactive) and the GI50 [39] was 7.14 µM (inactive). The GI50 [40] was 15.1 µM (inactive), the GI50 [41] was 15.9 µM (inactive) and the GI50 [42] was > 10 µM (inactive). The GI50 [43] was 22.2 µM (inactive), the GI50 [44] was > 100 µM (inactive) and the GI50 [45] was 90.4 µM (inactive). For the same molecule, the GI50 [46] was 15 µM (inactive), the GI50 [47] was 6.05 µM (inactive) and the GI50 [48] was 35 µM (inactive). For the same molecule, the GI50 [49] was 7.05 µM (inactive), the GI50 [50] was 11.4 µM (inactive) and the GI50 [51] was 24.4 µM (inactive). For the same molecule, the GI50 [52] was 33 µM (inactive), the GI50 [53] was 9.84 µM (inactive) and the GI50 [54] was 47.6 µM (inactive). The GI50 [55] was 21 µM (inactive) and the GI50 [56] was 4.44 µM (inactive).

CC(=O)O[C@@H]1[C@@H](O)C2=C3[C@]4(C)[C@@H]1C(C)(C)C(=O)C[C@@H]4[C@]3(O)[C@H](OC(C)=O)[C@@]1(C[C@@H]1C)C2=O was tested, and the GI50 [1] was 15.6 µM (inactive), the GI50 [2] was 23.4 µM (inactive) and the GI50 [3] was 24.2 µM (inactive). For the same molecule, the GI50 [4] was 18.9 µM (inactive), the GI50 [5] was 16.1 µM (inactive) and the GI50 [6] was 15.5 µM (inactive). For the same molecule, the GI50 [7] was 7.82 µM (inactive), the GI50 [8] was 18.4 µM (inactive) and the GI50 [9] was 17.3 µM (inactive). For the same molecule, the GI50 [10] was 19.2 µM (inactive), the GI50 [11] was 15.4 µM (inactive) and the GI50 [12] was 16.1 µM (inactive). For the same molecule, the GI50 [13] was 15.3 µM, the GI50 [57] was 13.6 µM (inactive) and the GI50 [15] was 15.6 µM (inactive). The GI50 [17] was 41.2 µM (inactive), the GI50 [18] was 15.4 µM (inactive) and the GI50 [19] was 2.71 µM (inactive). The GI50 [20] was 16.6 µM (inactive), the GI50 [21] was 14.8 µM (inactive) and the GI50 [22] was 25.2 µM (inactive). For the same molecule, the GI50 [23] was 19 µM (inactive), the GI50 [24] was 19.7 µM (inactive) and the GI50 [25] was 16 µM (inactive). For the same molecule, the GI50 [26] was 26.6 µM (inactive), the GI50 [27] was 13.5 µM (inactive) and the GI50 [29] was 29.3 µM (inactive). For the same molecule, the GI50 [30] was 15.5 µM (inactive), the GI50 [31] was 5.18 µM (inactive) and the GI50 [32] was 23.4 µM (inactive). For the same molecule, the GI50 [33] was 18.5 µM (inactive), the GI50 [34] was 19.5 µM (inactive) and the GI50 [35] was 23.7 µM (inactive). For the same molecule, the GI50 [36] was 18.5 µM (inactive), the GI50 [37] was 19.6 µM (inactive) and the GI50 [38] was 6.7 µM (inactive). For the same molecule, the GI50 [40] was 25.1 µM (inactive), the GI50 [41] was 20.7 µM (inactive) and the GI50 [42] was 21.3 µM (inactive). For the same molecule, the GI50 [43] was 16.3 µM (inactive), the GI50 [44] was 25.6 µM (inactive) and the GI50 [45] was 19.8 µM (inactive). The GI50 [46] was 24.2 µM (inactive), the GI50 [47] was 18.4 µM (inactive) and the GI50 [48] was 21 µM (inactive). For the same molecule, the GI50 [49] was 21.8 µM (inactive), the GI50 [50] was 18.3 µM (inactive) and the GI50 [51] was 16.3 µM (inactive). The GI50 [52] was 14.2 µM (inactive), the GI50 [53] was 16 µM (inactive) and the GI50 [54] was 13.9 µM (inactive). The GI50 [55] was 13.7 µM (inactive) and the GI50 [56] was 17.5 µM (inactive).

In the case of COC(=O)[C@](NC(=O)OCc1ccccc1)([C@@H](C)[S+]([O-])c1ccc(C)cc1)C(F)(F)F (some centres undefined), the GI50 [1] is reported as 52.2 µM (inactive), the GI50 [2] is reported as 31.4 µM (inactive) and the GI50 [3] is reported as 29.9 µM (inactive). For the same molecule, the GI50 [4] was 39.6 µM (inactive), the GI50 [5] was 22.4 µM (inactive) and the GI50 [6] was 41 µM (inactive). The GI50 [7] was 22.8 µM (inactive), the GI50 [8] was 25.8 µM (inactive) and the GI50 [9] was 38.2 µM (inactive). For the same molecule, the GI50 [10] was 29.2 µM (inactive), the GI50 [11] was 32.6 µM (inactive) and the GI50 [12] was 42.1 µM (inactive). The GI50 [13] was 34.7 µM, the GI50 [57] was 17 µM (inactive) and the GI50 [14] was > 100 µM (inactive). For the same molecule, the GI50 [15] was 26.9 µM (inactive), the GI50 [16] was 24.8 µM (inactive) and the GI50 [17] was 58.9 µM (inactive). For the same molecule, the GI50 [18] was 24.6 µM (inactive), the GI50 [19] was 34.4 µM (inactive) and the GI50 [20] was 29.3 µM (inactive). For the same molecule, the GI50 [21] was 33.7 µM (inactive), the GI50 [22] was 48.2 µM (inactive) and the GI50 [24] was 59.6 µM (inactive). For the same molecule, the GI50 [25] was 33.7 µM (inactive), the GI50 [26] was 18.7 µM (inactive) and the GI50 [27] was 33 µM (inactive). The GI50 [28] was 35.2 µM (inactive), the GI50 [29] was 32.1 µM (inactive) and the GI50 [30] was 29 µM (inactive). The GI50 [31] was 24.6 µM (inactive), the GI50 [32] was 28.7 µM (inactive) and the GI50 [33] was 43.7 µM (inactive). The GI50 [34] was 20.8 µM (inactive), the GI50 [35] was > 100 µM (inactive) and the GI50 [36] was 35.2 µM (inactive). For the same molecule, the GI50 [37] was 27.9 µM (inactive), the GI50 [38] was 26.5 µM (inactive) and the GI50 [39] was 20 µM (inactive). For the same molecule, the GI50 [40] was 41.1 µM (inactive), the GI50 [41] was 32.7 µM (inactive) and the GI50 [43] was 62.7 µM (inactive). The GI50 [44] was 19.5 µM (inactive), the GI50 [45] was 16.4 µM (inactive) and the GI50 [46] was 53.1 µM (inactive). For the same molecule, the GI50 [48] was 43 µM (inactive), the GI50 [49] was 36.4 µM (inactive) and the GI50 [58] was 22.9 µM (inactive). For the same molecule, the GI50 [50] was 53.2 µM (inactive), the GI50 [51] was 35.8 µM (inactive) and the GI50 [52] was 21.5 µM (inactive). For the same molecule, the GI50 [53] was 36.8 µM (inactive), the GI50 [54] was 24.8 µM (inactive) and the GI50 [55] was 37.3 µM (inactive). The GI50 [56] was 27.7 µM (inactive).
